Reference: the supplement of paper PMC10307832

Key:
Test in all cases: relative viability (nuclei count vs DMSO), 5 days (fraction); higher = more cells survive
SK-MES-1 = system: SK-MES-1
Summary of the method: (§1)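 Medians of duplicate plates are given as relative viability. That measure is the nuclei count in treated wells divided by the count in vehicle wells. Counts were taken on 4× images of lung cancer cell lines in 1536-well plates, 5 days after pin-tool dosing the day after seeding with one drug alone or a fixed anchor-drug dose plus five library-drug doses (not always all listed) in √10 steps.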

NCI-H460 = system: NCI-H460
Summary of the method: as §1

NCI-H520 = system: NCI-H520
Summary of the method: as §1

NCI-H1651 = system: NCI-H1651
Summary of the method: as §1

NCI-H661 = system: NCI-H661
Summary of the method: as §1

NCI-H2347 = system: NCI-H2347
Summary of the method: as §1

SW 900 = system: SW 900
Summary of the method: as §1

PC-14 = system: PC-14
Summary of the method: as §1

NCI-H727 = system: NCI-H727
Summary of the method: as §1

NCI-H596 = system: NCI-H596
Summary of the method: as §1

NCI-H3122 = system: NCI-H3122
Summary of the method: as §1

NCI-H650 = system: NCI-H650
Summary of the method: as §1

`COc1cc(N2CCC(C(N)=O)CC2)ccc1Nc1nc(N)c(Cl)c(Nc2ccccc2S(=O)(=O)C(C)C)n1` [HG-5-88-01] + CC(=O)Nc1cccc(-n2c(=O)n(C3CC3)c(=O)c3c(Nc4ccc(I)cc4F)n(C)c(=O)c(C)c32)c1 [Trametinib] (partner 0.02 µM) gave a relative viability (SK-MES-1; first compound 0.4 µM) of 0.503, a relative viability (SK-MES-1; first compound 1.265 µM) of 0.498 and a relative viability (SK-MES-1; first compound 4 µM) of 0.619. The relative viability (NCI-H460; first compound 0.04 µM) was 0.131, the relative viability (NCI-H460; first compound 0.1265 µM) was 0.124 and the relative viability (NCI-H460; first compound 0.4 µM) was 0.13. For the same molecule, the relative viability (NCI-H460; first compound 1.265 µM) was 0.0779, the relative viability (NCI-H460; first compound 4 µM) was 0.123 and the relative viability (NCI-H520; first compound 0.04 µM) was 0.568. The relative viability (NCI-H520; first compound 0.1265 µM) was 0.831, the relative viability (NCI-H520; first compound 0.4 µM) was 0.617 and the relative viability (NCI-H520; first compound 1.265 µM) was 0.74. The relative viability (NCI-H520; first compound 4 µM) was 0.634, the relative viability (NCI-H1651; first compound 0.04 µM) was 0.918 and the relative viability (NCI-H1651; first compound 0.1265 µM) was 0.862. The relative viability (NCI-H1651; first compound 0.4 µM) was 0.799, the relative viability (NCI-H1651; first compound 1.265 µM) was 0.744 and the relative viability (NCI-H1651; first compound 4 µM) was 0.957. It also gave a relative viability (NCI-H661; first compound 0.04 µM) of 0.591, a relative viability (NCI-H661; first compound 0.1265 µM) of 0.666 and a relative viability (NCI-H661; first compound 0.4 µM) of 0.573. It also gave a relative viability (NCI-H661; first compound 1.265 µM) of 0.554, a relative viability (NCI-H661; first compound 4 µM) of 0.608 and a relative viability (NCI-H2347; first compound 0.04 µM) of 0.324. For the same molecule, the relative viability (NCI-H2347; first compound 0.1265 µM) was 0.284, the relative viability (NCI-H2347; first compound 0.4 µM) was 0.227 and the relative viability (NCI-H2347; first compound 1.265 µM) was 0.229. The relative viability (NCI-H2347; first compound 4 µM) was 0.247, the relative viability (SW 900; first compound 0.04 µM) was 0.941 and the relative viability (SW 900; first compound 0.1265 µM) was 0.943. The relative viability (SW 900; first compound 0.4 µM) was 0.875, the relative viability (SW 900; first compound 1.265 µM) was 0.627 and the relative viability (SW 900; first compound 4 µM) was 0.685. For the same molecule, the relative viability (PC-14; first compound 0.04 µM) was 0.825, the relative viability (PC-14; first compound 0.1265 µM) was 0.836 and the relative viability (PC-14; first compound 0.4 µM) was 0.626. For the same molecule, the relative viability (PC-14; first compound 1.265 µM) was 0.28, the relative viability (PC-14; first compound 4 µM) was 0.0722 and the relative viability (NCI-H727; first compound 0.04 µM) was 0.379. It also gave a relative viability (NCI-H727; first compound 0.1265 µM) of 0.394, a relative viability (NCI-H727; first compound 0.4 µM) of 0.399 and a relative viability (NCI-H727; first compound 4 µM) of 0.364. For the same molecule, the relative viability (NCI-H596; first compound 0.04 µM) was 0.901, the relative viability (NCI-H596; first compound 0.1265 µM) was 0.794 and the relative viability (NCI-H596; first compound 0.4 µM) was 0.75. It also gave a relative viability (NCI-H596; first compound 1.265 µM) of 0.808, a relative viability (NCI-H596; first compound 4 µM) of 0.778 and a relative viability (NCI-H3122; first compound 0.04 µM) of 0.223. For the same molecule, the relative viability (NCI-H3122; first compound 0.1265 µM) was 0.169, the relative viability (NCI-H3122; first compound 0.4 µM) was 0.154 and the relative viability (NCI-H3122; first compound 1.265 µM) was 0.132. It also gave a relative viability (NCI-H3122; first compound 4 µM) of 0.0965, a relative viability (NCI-H650; first compound 0.04 µM) of 1.09 and a relative viability (NCI-H650; first compound 0.1265 µM) of 1.11. For the same molecule, the relative viability (NCI-H650; first compound 0.4 µM) was 0.987, the relative viability (NCI-H650; first compound 1.265 µM) was 0.696 and the relative viability (NCI-H650; first compound 4 µM) was 0.786.
